Measurements reported in US20060116343A1, “Sphingosine kinase-1 mediates gene expression regulation of a monocyte chemoattractant protein-1 gene” (priority 2004, published 2006).

Experiments:
Type in all cases: cell-based, human
[1] = test system: MCP-1 gene expression in HMVECs; assay: cDNA microarray analysis of gene expression in stimulated HMVECs; settings: four hours; for MCP-1 gene expression in response to stimulus (microarray): thrombin 100 nM or TNF-α 20 ng/ml
Method: In an effort to rapidly assess the potential overall role of SK1 in endothelial cell function, a cDNA microarray analyses was performed in HMVEC in the absence and presence of the SK1 inhibitor DMS. The cells were stimulated through two receptor subtypes: G-protein coupled receptors, for which the Protease Activate Receptor (PAR) family was utilized with thrombin as the agonist and cytokine receptors with TNF-α as the agonist
Cell Culture—Adult human microvascular endothelial cells (HMVECs) (Cambrex) were cultured in EGM complete media (Cambrex). Cells were used between the third and sixth passages for all studies.
Microarray Study—Adult human microvascular endothelial cells (HMVECs) (Cambrex) were placed into culture (5% FBS) and stimulated with thrombin (100 nM) or TNF-α (20 ng/ml) in the absence or presence of DMS (10 μM), a potent inhibitor of sphingosine kinase. After four hours of stimulation, RNA was isolated (Tri-Reagent, Bio-Mol), DNAse treated and cleaned using the RNeasy maxi kit (Qiagen). Upon validation of RNA purity using the Agilent 2100 Bioanalyzer, RNA was then subjected to cDNA microarray analyses.
A cDNA microarray containing 3563 cDNA clones was used in this study. In the gene expression studies two types of replications were used, biological and technical. Duplicate biological samples were harvested for each experimental condition for the initial microarray analyses. Additionally technical replication was employed as all samples were run in triplicate on separate microarrays. The microarray data from each sample were subjected to outlier removal based on technical replication and normalization based on both the technical and biological replication. The normalization consisted of an initial normalization between hybridization replicates within a single sample, followed by a secondary normalization across all samples within the study (Shaw et al., J Mol Microbiol Biotechnol, 2003, 5:105-122). […] After cleanup and subsequent normalizations, a single ratio was calculated for each treatment to its assigned control. […]

[2] = test system: MCP-1 protein secretion from HMVECs; assay: MCP-1 ELISA of HMVEC supernatant; settings: 24 hours; for MCP-1 protein secretion in response to stimulus (ELISA): thrombin 100 nM or varying concentrations of PAR-activating peptides; for effect of inhibitor pretreatment on induced MCP-1 protein secretion: DMS 10 μM, Bay11-7092 10 μM, GF109203x 1 μM, PD98059 10 μM, stimulation with Thrombin 100 nM, PAR-1-AP 100 nM or (Thrombin 0.1 ng/ml)
Method: HMVECs were placed into culture and stimulated with Thrombin (100 nM) or varying concentrations of PAR-activating peptides. 24 hours later, we used ELISA to detect secretion of MCP-1 into supernatant.
MCP-1 ELISA—HMVECs were placed into culture in 96-well dishes (2×10^3 cells/well) and grown for 24 hours in complete growth media. Cells were transfected with control non-silencing siRNA or siRNAs for hSK1 or hSK2 in serum-free Opti-MEM (Gibco) for 4 hours. Cells were then allowed to grow for 24 hours in media containing 10% FBS, after which the cells were serum starved in 0.5% FBS media overnight. Cells were subsequently stimulated with fresh 0.5% FBS containing media and incubated under various experimental conditions for an additional 24 hours. Where indicated, cells were pre-incubated with specific compound inhibitors, for 20 minutes, prior to stimulation. Supernatants were collected and analyzed by ELISA (Cell Sciences).
HMVECs were transfected with siRNAs (1.6 μg), hSK1-specific, hSK2-specific or control non-silencing siRNAs. After 48 hours, cells were stimulated with Thrombin (100 nM), PAR-1-AP (300 μM) or PAR-4-AP (600 μM). ELISA was performed to detect MCP-1 secretion into cell supernatant. […] Furthermore, basal levels of MCP-1 protein secretion appeared to be effected as well, as the level of MCP-1 protein secretion in cells that were unstimulated or stimulated with PAR-4-AP was decreased from cells transfected with hSK1 specific siRNA.
HMVECs were placed into culture overnight, and pretreated with inhibitors to hSK (DMS 10 μM), NF-κB (Bay11-7092 10 μM), PKC (GF109203x 1 μM), or Erk (PD98059 10 μM) prior to stimulation with Thrombin (100 nM), PAR-1-AP (TFLLRN 100 nM), or (Thrombin 0.1 ng/ml). ELISAs were performed 24 hours after stimulation to measure the amount of MCP-1 secretion. […] Furthermore we observed that NF-κB activity is a prerequisite for MCP-1 expression as well, as pretreatment with the NF-κB inhibitor, Bay11-7092, abrogated the induction of MCP-1 protein secretion by all agonists.
HMVECs were placed into culture overnight, and pretreated with inhibitors to hSK (DMS 10 μM), NF-κB (Bay11-7092 10 μM), PKC (GF109203×1 μM), or Erk (PD98059 10 μM) prior to stimulation with 5 μM S1P. ELISAs were performed to detect the levels of secreted MCP-1 protein. […] There was no elevation of MCP-1 protein by the external addition of S1P. Therefore, we rule out a role for S1P receptors in the hSK-dependent release of MCP-1 from HMVECs.

[3] = test system: MCP-1 transcripts in HMVECs; assay: Quantitative RT-PCR of MCP-1 transcripts in stimulated HMVECs; settings: thrombin 100 nM
Text: In the presence of hSK1-specific siRNAs, induction of MCP-1 was inhibited whereas in the presence of hSK2-specific or control non-silencing siRNAs, MCP-1 induction was not affected.
Evaluation of siRNA Transfection Efficiency and Silencing Capabilities—Small interfering RNAs (siRNAs) were designed and synthesized to target either sequences for hSK1, SEQ ID NO: 1 ([…]) or hSK2, SEQ ID NO:2 ([…]) transcripts as well as control non-silencing siRNA, SEQ ID NO:3 ([…]), which has no sequence target in the human genome (Qiagen). The oligonucleotides were fluorescein-conjugated on the 3′ end of the sense strand, which facilitated visualization of transfection efficiency by fluorescence confocal microscopy (LSM 510, Zeiss). […] For experimental studies RNA were isolated, DNAse treated and subjected to quantitative RT-PCR analyses to detect transcript levels of hSK1, hSK2, MCP-1 and control 18S transcripts using predesigned primers from Applied Biosystems. […]
Quantitative RT-PCR—HMVECs were placed into culture overnight and stimulated with thrombin (100 nM) after which RNA was isolated and DNAse treated. TaqMan® quantitative RT-PCRs were performed in triplicate as validation of microarray analyses according to manufacturers instructions (Applied Biosystems). The quantity mean for each detector was normalized to that of the 18S detector.

## TNF-α
[1]
  MCP-1 gene expression in response to stimulus (microarray): induced

## TFLLRN [PAR-1-AP]
[2]; HMVECs
  MCP-1 protein secretion in response to stimulus (ELISA): stimulated secretion of MCP-1

## COc1cccc(-c2cc(=O)c3ccccc3o2)c1N [PD98059]
[2]; HMVECs
  effect of inhibitor pretreatment on induced MCP-1 protein secretion: no effect

## thrombin
[1]
  MCP-1 gene expression in response to stimulus (microarray): induced
[3]
  MCP-1 transcripts in response to stimulus (quantitative RT-PCR): induction of MCP-1 transcripts
[2]; HMVECs
  MCP-1 protein secretion in response to stimulus (ELISA): augmented

## CN(C)CCCn1cc(C2=C(c3c[nH]c4ccccc34)C(=O)NC2=O)c2ccccc21 [GF109203x]
[2]; HMVECs
  effect of inhibitor pretreatment on induced MCP-1 protein secretion: intermediate effect

## CCCCCCCCCCCCC/C=C/[C@@H](O)[C@@H](N)COP(=O)(O)O [S1P, Sphingosine-1-phosphate]
[2]; HMVECs, 5 μM S1P
  MCP-1 protein secretion after external addition of S1P: no elevation

## CCCCCCCCCCCCC/C=C/[C@@H](O)[C@H](CO)N(C)C [DMS, dimethylsphingosine]
[1]; DMS 10 μM added prior to stimulation with thrombin 100 nM or TNF-α 20 ng/ml
  effect on thrombin- and TNF-α-induced MCP-1 gene expression (microarray): inhibited
[2]; HMVECs pretreated with DMS prior to stimulation
  effect on thrombin- or PAR-1 agonist peptide-stimulated secretion of MCP-1 protein: inhibited secretion of MCP-1 protein
[2]; HMVECs
  effect of inhibitor pretreatment on induced MCP-1 protein secretion: hSK activity is required
